Measured values published in patent US20250304892A1, “APPARATUS, SYSTEM, AND METHOD FOR FORMING A PERTURBABLE BONE MARROW MODEL WITHIN A THREE-DIMENSIONAL MICROPHYSIOLOGICAL SYSTEM” (The Trustees of the University of Pennsylvania, priority 2022, published 2025).

Tests used:
Format in all cases: cell-based, human
[1] = system: micro-engineered bone marrow (MEBM) model; assay: Mobilization of blood cells from the MEBM model on vascular perfusion with IL-8 or AMD3100
From the text: When hormones, cytokines, and other soluble signals produced by peripheral tissues reach the bone marrow, they can induce mature blood cells in the hematopoietic niche to transmigrate across the sinusoidal endothelium and enter the bloodstream. This regulated release of blood cells into circulation is termed mobilization, which represents a critical step in immunity and continuous cellular replenishment required for homeostasis of the hematopoietic system. Having validated the transcriptomic signatures of mature hematopoietic cells in the MEBM model and their capacity for physiologically relevant cell-cell signaling, the MEBM model was evaluated to determine whether it could reconstitute the complex process of mobilization in the integrated context of the vascularized hematopoietic niche. The study was specifically focused on investigating the ability of mature neutrophils differentiated from HSCs in the MEBM model to replicate rapid release of their in vivo counterparts from the bone marrow reserve during immune responses to inflammatory insults. To simulate this situation, the vasculature of the micro-engineered niche was perfused with culture media containing physiologically relevant concentrations of interleukin-8 (IL-8) during infection (5,000 μg/ml), a systemic inflammatory cytokine known to stimulate neutrophil release.
In control experiments without IL-8, the vast majority of mature neutrophils identified by their expression of CD66b were retained in the perivascular space. […] Intravascular translocation of these cells occurred rapidly, within one hour of treatment, consistent with the time scale over which neutrophils are mobilized from the native marrow in an inflammatory setting.
To capture the process of mobilization under the dynamic conditions of continuous vascular perfusion, a time-lapse imaging of neutrophils in the micro-engineered niche was performed at physiological flow rates (10 μl/min). In the IL-8-treated replicates, neutrophils were distributed in the perivascular region initially, but upon cytokine stimulation, a large fraction of these cells entered the neighboring blood vessels in less than 20 minutes. The intravasated cells were then quickly cleared from the observation area in the direction of flow. The cellular content of effluent collected from these devices was composed primarily of non-adherent cells characterized by multilobular nuclei and robust expression of CD66b, confirming the release of terminally differentiated mature neutrophils. During the same time period only a few neutrophils were mobilized in the control group.
The MEBM model was also responsive to AMD3100 (Plerixafor), a CXCR4 antagonist clinically used for mobilizing HSCs and other hematopoietic cells from the bone marrow for autologous transplantation.
Statistically analyses described above were performed as follows. Mobilization of neutrophils in response to IL-8 and AMD3100 was assessed by ordinary one-way ANOVA, with Dunnett correction employed for multiple comparisons. Marker expression (CD15 and CD66b) as compared between AMD3100- and IL-8-mobilized groups was tested by unpaired t-test. Cell populations following irradiation were compared using 2-way ANOVA with multiple comparisons testing adjusted by Dunnett correction. Mobilization following infection was compared between infected and non-infected groups by unpaired t-test. Quantities of neutrophils at inflow and outflow position were compared using Welch's t-test to account for unequal variances in the data. Comparisons between multiplexed Luminex cytokine assays were performed using multiple t-tests, corrected by the Holm-Sidak method.

[2] = system: micro-engineered bone marrow (MEBM) model; assay: Stimulation of erythropoiesis in the MEBM model with erythropoietin; settings: Erythropoiesis-Specific Medium (EPO 1 ng/ml)
Experimental: Having confirmed the vascularization and HSC colonization of the micro-engineered niche, the potential to deploy the MEBM model to reconstitute multilineage hematopoiesis was investigated. Considering that hematopoiesis in vivo relies on extrinsic cues to control the fate of HSCs, the hematopoietic investigation was conducted by the addition of soluble factors known to drive lineage differentiation. First, the MEBM model was treated with erythropoietin (EPO) (see “Erythropoiesis-Specific Medium” of Table 1) to stimulate erythropoiesis. […] Following this phenotypic organization, the MEBM model produced a substantial number of round, erythroid cells that were distinguishable by their red color and expression of transferrin receptor (i.e., CD71) and glycophorin A. The micro-engineered niche also supported the differentiation of HSCs into myeloid cells. Stimulation of the MEBM model with myelopoietic media (see Table 1) for 21 days produced a marrow construct densely packed with cells of myeloid lineages, most of which were situated proximate the vasculature. A significant number of the cells were terminally differentiated mature neutrophils as identified by their multisegmented nuclei, intracellular secretory granules, and surface marker expression (CD15+/CD66b+).

[3] = system: mobilized neutrophils; assay: Boyden chamber migration assay: chemotaxis of mobilized neutrophils in a gradient of IL-8; settings: over a period of an hour
Experimental: For further investigation, a Boyden chamber migration assay was conducted to measure chemotaxis of mobilized neutrophils in a gradient of IL-8 as a representative endpoint of their functional capacity. […] It was noted that the transmigrated cells in the lower chamber clumped together to form multicellular aggregates, reminiscent of neutrophil swarming in vivo that plays an important functional role in antimicrobial activities of neutrophils.

[4] = image cytometry of CD15 and CD66b staining, cells released by AMD3100

c1cc(CN2CCCNCCNCCCNCC2)ccc1CN1CCCNCCNCCCNCC1 [AMD3100, Plerixafor, reference compound]
rate of mobilization compared with the IL-8-treated model ([1]; AMD3100 25 μg/ml): lower than that in the IL-8-treated model | neutrophils among the released cells of myeloid lineage [1, 4]: 56% | released cells of myeloid lineage [1, 4]: approximately 65% | increase in the rate at which cells were released from the device ([1]; perfused with clinical dose 25 μg/ml, in comparison to untreated controls): more than fivefold

EPO: soluble factor added to stimulate erythropoiesis
effect of EPO addition on the micro-engineered niche [2]: formation of multicellular complexes

IL-8: a systemic inflammatory cytokine known to stimulate neutrophil release
mature neutrophils in the population of released cells ([1]; IL-8-induced mobilization, image cytometry): 76% | egress of CD66b+ cells from the stromal compartment into the vascular lumen ([1]; IL-8 infused through the vasculature (5,000 μg/ml), compared with control without IL-8): substantial egress of CD66b+ cells | time until a large fraction of neutrophils entered the neighboring blood vessels ([1]; time-lapse imaging, continuous vascular perfusion at 10 μl/min, upon cytokine stimulation): less than 20 minutes | cells that moved across the membrane [3]: ~80%
